Values quoted from earlier work, collected in US20060234993A1, “Use of androstane derivatives for enhancing physical performance” (priority 2005, published 2006).
Like-named read-outs stand apart in the source and are kept apart here.

Columns and labels:
[1] = in vivo

## C[C@]12CC[C@H](O)CC1=CC[C@@H]1[C@@H]2CC[C@]2(C)C(=O)CC[C@@H]12 [DHEA, dehydroepiandrosterone]
[1]
  estrogenic and androgenic side effects, including gynecomastia, water retention (edema), fat retention, prostate enlargement, acne, hair loss: negative estrogenic and androgenic side effects

## C[C@]12CC[C@@H](O)C[C@H]1CC[C@@H]1[C@@H]2CC[C@]2(C)C(=O)CC[C@@H]12 [Etiocholanolone, 3-alpha (beta)-hydroxy-5β-androstan-17-one]
mice; normal mice
  body weight: reduce body weight
mice; obese mice
  body weight: reduce body weight
